Like-named read-outs stand apart in the source and are kept apart here.
How the values were obtained:
[1] = Comparative dosage study, sleep times in humans; type: in vivo; conditions: much lower dose with adjuvant, compared with oral
Excerpt: The best method for carrying out the invention: Alprazolam and adjuvant are formulated into sublingual tablets/sprays by conventional methods and administered and sleep times recorded for humans as well as animals.

[2] = same or similar dose with permeability enhancers, compared with oral
Procedure: The clinical trials were conducted in two parts. The first part consisted of the following stages.
Further trials were carried out to determine the duration of action glipizide and adjuvant combination.
To test the efficacy of adjuvant we compared the efficacy of 5 mg of sub-lingual glipizide with adjuvant, with 5 mg of sublingual glipizide without adjuvant. […] Finally tests were carried out to determine whether the adjuvant used participates in receptor binding process. Keeping the amount of glipizide at 5 mg the quantity of adjuvant were doubled.

Structure (SMILES)	increase in effect [1] [%]	increase in effect [2] [%]
Cc1nnc2n1-c1ccc(Cl)cc1C(c1ccccc1)=NC2 [alprazolam]	200	
Cc1cnc(C(=O)NCCc2ccc(S(=O)(=O)NC(=O)NC3CCCCC3)cc2)cn1 [glipizide]		3200

— patent publication US20220257610A1, “Enhancing drug activity through accentuated buccal/sublingual administration” (priority 2019, published 2022)
